In ChEMBL document CHEMBL5058564, “EUbOPEN Chemogenomics Library 2 (Incucyte)” (2022):

Tests used:
Assay type in all cases: toxicity, cell-based
U2OS = experiment: Incucyte cell viability with U2OS; conditions: human, 10 µM, compound concentration 10 uM
Fibroblast = experiment: Incucyte cell viability with human fibroblast; conditions: 10 µM, compound concentration 10 uM
HEK-293T = experiment: Incucyte cell viability with HEK293T; conditions: human, 10 µM, compound concentration 10 uM
[1] = 0 h, replicate number 2, timepoint 0 hours
[2] = 12 h, replicate number 2, timepoint 12 hours
[3] = 18 h, replicate number 1, timepoint 18 hours
[4] = 18 h, replicate number 2, timepoint 18 hours
[5] = 24 h, replicate number 1, timepoint 24 hours
[6] = 24 h, replicate number 2, timepoint 24 hours
[7] = 0 h, replicate number 1, timepoint 0 hours
[8] = 6 h, replicate number 1, timepoint 6 hours
[9] = 6 h, replicate number 2, timepoint 6 hours
[10] = 12 h, replicate number 1, timepoint 12 hours
Also: unitless GR value; below 1 slowed growth and below 0 cell loss.

Structure (SMILES)	Growth Rate (U2OS; [1])	Growth Rate (U2OS; [2])	Growth Rate (U2OS; [3])	Growth Rate (U2OS; [4])	Growth Rate (Fibroblast; [1])	Growth Rate (Fibroblast; [8])	Growth Rate (Fibroblast; [9])	Growth Rate (Fibroblast; [10])	Growth Rate (Fibroblast; [2])	Growth Rate (Fibroblast; [5])	Growth Rate (HEK-293T; [8])	Growth Rate (HEK-293T; [9])	Growth Rate (HEK-293T; [10])	Growth Rate (HEK-293T; [3])	Growth Rate (HEK-293T; [4])	Growth Rate (HEK-293T; [5])	Growth Rate (HEK-293T; [6])	Growth Rate (U2OS; [8])	Growth Rate (HEK-293T; [1])	Growth Rate (HEK-293T; [2])	further results
S=C(NCCCc1c[nH]cn1)NCCCN(Cc1ccc(Cl)c(Cl)c1)c1ccc(Br)cn1	-1	0.84	0.88	0.68	0.91	-0.23	0.5	0.17	0.18	-0.16	0.16	-0.21	0.08	0.15	0.19	0.15	0.2	–	–	–	Growth Rate (U2OS; [5]): 0.83; Growth Rate (U2OS; [6]): 0.67; Growth Rate (Fibroblast; [7]): 0.28; Growth Rate (Fibroblast; [3]): -0.18; Growth Rate (Fibroblast; [4]): 0.55; Growth Rate (Fibroblast; [6]): 0.74
Cl.Clc1cccc(Cl)c1NC1=NCCN1 [CLONIDINE HYDROCHLORIDE]	0.55	–	1	–	–	0.94	0.45	–	0.46	0.9	0.49	–	0.74	0.59	0.58	0.85	0.63	0.87	0.43	0.54	Growth Rate (U2OS; [9]): 0.91; Growth Rate (Fibroblast; [7]): 0.82; Growth Rate (Fibroblast; [4]): 0.62; Growth Rate (Fibroblast; [6]): 0.47; Growth Rate (HEK-293T; [7]): 0.99
c1cc(OCCCN2CCCCC2)ccc1CN1CCCCC1 [JNJ-5207852]	–	0.92	–	0.94	–	0.31	–	–	0.6	0.68	–	0.82	–	–	–	–	–	–	–	–	Growth Rate (U2OS; [7]): -0.13; Growth Rate (U2OS; [9]): 0.76; Growth Rate (Fibroblast; [7]): 0.03
CCCN[C@H]1CCc2nc(N)sc2C1.Cl.Cl	0.18	0.97	–	0.92	-0.13	-0.38	0.73	0.31	0.7	–	–	0.07	0.99	0.97	0.77	0.93	0.81	–	0.77	0.53	Growth Rate (Fibroblast; [3]): 0.84; Growth Rate (HEK-293T; [7]): 0.73
O=C1NC(=Nc2c(Cl)cccc2Cl)S/C1=C\c1ccc2nccnc2c1	-0.91	0.54	0.55	0.57	0.72	0.24	0.79	0.09	0.32	0.39	0.34	0.18	0.15	0.07	0.05	0.26	0.15	0	0.37	-0.06	Growth Rate (U2OS; [9]): 0.81; Growth Rate (U2OS; [10]): 0.33; Growth Rate (U2OS; [5]): 0.63; Growth Rate (U2OS; [6]): 0.59; Growth Rate (Fibroblast; [7]): 0.9; Growth Rate (Fibroblast; [3]): 0.4; Growth Rate (Fibroblast; [4]): 0.61; Growth Rate (Fibroblast; [6]): 0.48; Growth Rate (HEK-293T; [7]): 0.36
N#Cc1c(N)nc(SCc2csc(-c3ccc(Cl)cc3)n2)c(C#N)c1-c1ccc(OCCO)cc1 [CAPADENOSON]	0.97	0.81	0.66	0.87	-0.41	-0.5	0.85	-0.47	0.37	-0.34	0.99	0.69	0.54	0.36	0.44	0.31	0.41	0.52	0.32	0.46	Growth Rate (U2OS; [7]): 0.75; Growth Rate (U2OS; [10]): 0.6; Growth Rate (U2OS; [5]): 0.79; Growth Rate (U2OS; [6]): 0.83; Growth Rate (Fibroblast; [7]): 0.09; Growth Rate (Fibroblast; [3]): -0.41; Growth Rate (Fibroblast; [4]): 0.66; Growth Rate (Fibroblast; [6]): 0.54; Growth Rate (HEK-293T; [7]): 0.41
N[C@@H](CCP(=O)(O)O)C(=O)O	-1	–	0.86	0.78	–	-0.06	–	0.45	–	–	–	0.79	–	–	–	–	0.78	0.67	–	0.88	Growth Rate (U2OS; [10]): 0.39; Growth Rate (U2OS; [6]): 0.97; Growth Rate (HEK-293T; [7]): 0.99
Cc1ccc(O)c([C@H](CCN(C(C)C)C(C)C)c2ccccc2)c1.O=C(O)C(O)C(O)C(=O)O [TOLTERODINE TARTRATE]	0.94	–	–	–	0.83	0.59	–	0.92	–	–	0.89	–	0.79	–	–	–	–	0.98	0.52	–	Growth Rate (U2OS; [7]): -0.73
CC(=O)NCCc1c(Cc2ccccc2)[nH]c2ccccc12 [LUZINDOLE]	–	0.87	–	0.76	0.86	0.87	–	0.94	–	–	–	0.58	0.96	–	–	–	–	0.72	–	–	Growth Rate (U2OS; [7]): 0.42; Growth Rate (U2OS; [9]): 0.96; Growth Rate (U2OS; [6]): 0.88
Cc1cc(=O)n(C)c2cc(N3C(=O)CC[C@H](NS(=O)(=O)CC(C)C)[C@H]3c3ccc(Cl)cc3)ccc12	-0.09	0.96	0.5	–	–	-0.91	-0.68	-0.73	-0.53	-0.65	-0.08	–	0.15	0.21	0.76	0.18	0.8	0.78	0.38	0.9	Growth Rate (U2OS; [7]): -0.56; Growth Rate (U2OS; [10]): 0.8; Growth Rate (U2OS; [5]): 0.7; Growth Rate (Fibroblast; [3]): -0.76; Growth Rate (Fibroblast; [4]): -0.4; Growth Rate (Fibroblast; [6]): -0.38
